According to patent US20230398087A1, “APPLICATION OF BZP IN TREATMENT OF ISCHEMIC CARDIOVASCULAR AND CEREBRAL VASCULAR DISEASES” (priority 2020, published 2023):

System: acute global cerebral ischemia in rats
Experiment: Acute global cerebral ischemia in rats, volume of cerebral infarction (nuclear magnetic resonance)
Assay type: in vivo
Conditions: BZP 0.75, 3, 12 and 24 mg/kg; Br-NBP 10.5 mg/kg; NBP-K 9.6 mg/kg; vs model group
Source text: 2.7 The Protective Effect of BZP on Acute Global Cerebral Ischemia in Rats: […]

SMILES | volume of cerebral infarction
CCCCC1OC(=O)c2cc(Br)ccc21 (centres unmarked) [Br-NBP, reference compound] | significantly reduce
CCCCC(O)c1ccccc1C(=O)[O-].[K+] (centres unmarked) [NBP-K, reference compound] | significantly reduce
